Results published in ChEMBL document CHEMBL1135808, “A new type of mixed anhydride and its applications to the synthesis of 7-substituted 8-chloro-5,5-dioxoimidazo[1,2-b][1,4,2]benzodithiazines with in vitro antitumor activity” (2002).

Assays:
MCF7 [1] = experiment: Log of molar concentration leading to 50% cell death against breast cancer MCF 7 cell line was reported; assay type: functional; conditions: Homo sapiens, read-out: Log LC50 (the source's name) (converted)
DU-145 [2] = experiment: In vitro growth inhibition against prostate cancer […] cell line was reported.; assay type: functional; conditions: Homo sapiens
PC-3 = experiment: Log of molar concentration leading to 50% cell death against prostate cancer PC-3 cell line was reported; assay type: functional; conditions: Homo sapiens, read-out: Log LC50 (the source's name) (converted)
U-251 = experiment: Log of molar concentration leading to 50% cell death against CNS cancer U251 cell line was reported; assay type: functional; conditions: Homo sapiens, read-out: Log LC50 (the source's name) (converted)
OVCAR-8 [3] = experiment: In vitro total growth inhibition against ovarian cancer OVCAR-8 cell lines was reported.; assay type: functional; conditions: Homo sapiens, read-out: Log TGI (converted)
T47D = experiment: In vitro growth inhibition against breast cancer […] cell line was reported.; assay type: functional; conditions: Homo sapiens
HOP-62 = experiment: In vitro total growth inhibition against non-small-cell lung cancer HOP-62 cell lines was reported.; assay type: functional; conditions: Homo sapiens, read-out: Log TGI (converted)
RPMI-8226 [4] = experiment: Log of molar concentration leading to 50% cell death against leukemia […] cell line was reported; assay type: functional; conditions: Homo sapiens, read-out: Log LC50 (the source's name) (converted)
NCI-H322M [5] = experiment: In vitro total growth inhibition against non-small-cell lung cancer NCI-H322M cell lines was reported.; assay type: functional; conditions: Homo sapiens, read-out: Log TGI (converted)
NCI/ADR-RES = experiment: In vitro total growth inhibition against breast cancer NCI/ADR-RES cell lines was reported.; assay type: functional; conditions: Homo sapiens, read-out: Log TGI (converted)
DU-145 [6] = experiment: Log of molar concentration leading to 50% cell death against prostate cancer […] cell line was reported; assay type: functional; conditions: Homo sapiens, read-out: Log LC50 (the source's name) (converted)
SF-295 [7] = experiment: In vitro growth inhibition against CNS cancer SF-295 cell line was reported.; assay type: functional; conditions: Homo sapiens
BT-549 = experiment: In vitro growth inhibition against breast cancer BT 549 cell line was reported.; assay type: functional; conditions: Homo sapiens
HL-60 [8] = experiment: In vitro growth inhibition against leukemia HL-60(TB) cell line was reported.; assay type: functional; conditions: Homo sapiens
786-0 = experiment: In vitro growth inhibition against renal cancer […] cell line was reported.; assay type: functional; conditions: Homo sapiens
CCRF-CEM = experiment: In vitro total growth inhibition against leukemia CCRF cell lines was reported.; assay type: functional; conditions: Homo sapiens, read-out: Log TGI (converted)
UACC-62 [9] = experiment: Log of molar concentration leading to 50% cell death against melanoma UACC-62 cell line was reported; assay type: functional; conditions: Homo sapiens, read-out: Log LC50 (the source's name) (converted)
M14 [10] = experiment: Log of molar concentration leading to 50% cell death against melanoma M14 cell line was reported; assay type: functional; conditions: Homo sapiens, read-out: Log LC50 (the source's name) (converted)
A549 = experiment: In vitro growth inhibition against non-small-cell lung cancer A 549/ATCC cell line was reported.; assay type: functional; conditions: Homo sapiens
HL-60 [11] = experiment: In vitro total growth inhibition against leukemia HL-60(TB) cell lines was reported.; assay type: functional; conditions: Homo sapiens, read-out: Log TGI (converted)
SK-MEL-2 [12] = experiment: Log of molar concentration leading to 50% cell death against melanoma SK-MEL-2 cell line was reported; assay type: functional; conditions: Homo sapiens, read-out: Log LC50 (the source's name) (converted)
HCC 2998 [13] = experiment: In vitro total growth inhibition against colon cancer HCC2998 cell lines was reported.; assay type: functional; conditions: Homo sapiens, read-out: Log TGI (converted)
MDA-MB-435 = experiment: In vitro total growth inhibition against breast cancer MDA-MB-435 cell lines was reported.; conditions: Homo sapiens, read-out: Log TGI (converted)
MCF7 [14] = experiment: In vitro total growth inhibition against breast cancer MCF 7 cell lines was reported.; assay type: functional; conditions: Homo sapiens, read-out: Log TGI (converted)
HCC 2998 [15] = experiment: In vitro growth inhibition against colon cancer HCC2998 cell line was reported.; assay type: functional; conditions: Homo sapiens
UACC-62 [16] = experiment: In vitro total growth inhibition against melanoma UACC-62 cell lines was reported.; assay type: functional; conditions: Homo sapiens, read-out: Log TGI (converted)
HCT-116 [17] = experiment: In vitro total growth inhibition against colon cancer HCT116 cell lines was reported.; assay type: functional; conditions: Homo sapiens, read-out: Log TGI (converted)
SR = experiment: In vitro total growth inhibition against leukemia SR cell lines was reported.; assay type: functional; conditions: Homo sapiens, read-out: Log TGI (converted)
SK-MEL-2 [18] = experiment: In vitro total growth inhibition against melanoma SK-MEL-2 cell lines was reported.; assay type: functional; conditions: Homo sapiens, read-out: Log TGI (converted)
TK-10 = experiment: In vitro total growth inhibition against renal cancer TK-10 cell lines was reported.; assay type: functional; conditions: Homo sapiens, read-out: Log TGI (converted)
MDA-MB-231 [19] = experiment: In vitro growth inhibition against breast cancer MDA-MB-231/ATCC cell line was reported.; assay type: functional; conditions: Homo sapiens
MDA-MB-231 [20] = experiment: Log of molar concentration leading to 50% cell death against breast cancer MDA-MB-231/ATCC cell line was reported; assay type: functional; conditions: Homo sapiens, read-out: Log LC50 (the source's name) (converted)
IGROV-1 = experiment: In vitro total growth inhibition against ovarian cancer IGROV1 cell lines was reported.; assay type: functional; conditions: Homo sapiens, read-out: Log TGI (converted)
M14 [21] = experiment: In vitro growth inhibition against melanoma M14 cell line was reported.; assay type: functional; conditions: Homo sapiens
NCI-H46 = experiment: In vitro total growth inhibition against non-small-cell lung cancer […] cell lines was reported.; assay type: functional; conditions: Homo sapiens, read-out: Log TGI (converted)
NCI-H226 [22] = experiment: In vitro growth inhibition against non-small-cell lung cancer NCI-H226 cell line was reported.; assay type: functional; conditions: Homo sapiens
ACHN = experiment: In vitro total growth inhibition against renal cancer ACHN cell lines was reported.; assay type: functional; conditions: Homo sapiens, read-out: Log TGI (converted)
MDA-N = experiment: In vitro growth inhibition against breast cancer MDA-N cell line was reported.; assay type: functional; conditions: Homo sapiens
NCI-H23 = experiment: In vitro total growth inhibition against non-small-cell lung cancer NCI-H23 cell lines was reported.; assay type: functional; conditions: Homo sapiens, read-out: Log TGI (converted)
RXF 393 = experiment: Log of molar concentration leading to 50% cell death against renal cancer RXF 393 cell line was reported; assay type: functional; conditions: Homo sapiens, read-out: Log LC50 (the source's name) (converted)
OVCAR-8 [23] = experiment: In vitro growth inhibition against ovarian cancer OVCAR-8 cell line was reported.; assay type: functional; conditions: Homo sapiens
SF-295 [24] = experiment: Log of molar concentration leading to 50% cell death against CNS cancer SF-295 cell line was reported; assay type: functional; conditions: Homo sapiens, read-out: Log LC50 (the source's name) (converted)
SK-MEL-28 [25] = experiment: Log of molar concentration leading to 50% cell death against melanoma SK-MEL-28 cell line was reported; assay type: functional; conditions: Homo sapiens, read-out: Log LC50 (the source's name) (converted)
UACC-257 [26] = experiment: Log of molar concentration leading to 50% cell death against melanoma UACC-257 cell line was reported; assay type: functional; conditions: Homo sapiens, read-out: Log LC50 (the source's name) (converted)
MCF7 [27] = experiment: In vitro growth inhibition against breast cancer MCF 7 cell line was reported.; assay type: functional; conditions: Homo sapiens
RPMI-8226 [28] = experiment: In vitro total growth inhibition against leukemia […] cell lines was reported.; assay type: functional; conditions: Homo sapiens, read-out: Log TGI (converted)
HCT-116 [29] = experiment: Log of molar concentration leading to 50% cell death against colon cancer HCT116 cell line was reported; assay type: functional; conditions: Homo sapiens, read-out: Log LC50 (the source's name) (converted)
HT-29 = experiment: In vitro total growth inhibition against colon cancer HT-29 cell lines was reported.; assay type: functional; conditions: Homo sapiens, read-out: Log TGI (converted)
NCI-H226 [30] = experiment: In vitro total growth inhibition against non-small-cell lung cancer NCI-H226 cell lines was reported.; assay type: functional; conditions: Homo sapiens, read-out: Log TGI (converted)
MOLT-4 = experiment: In vitro growth inhibition against leukemia MOLT-4 cell line was reported.; assay type: functional; conditions: Homo sapiens
KM12 = experiment: Log of molar concentration leading to 50% cell death against colon cancer KM12 cell line was reported; assay type: functional; conditions: Homo sapiens, read-out: Log LC50 (the source's name) (converted)
UACC-257 [31] = experiment: In vitro total growth inhibition against melanoma UACC-257 cell line was reported.; assay type: functional; conditions: Homo sapiens
SF-295 [32] = experiment: In vitro total growth inhibition against CNS cancer SF-295 cell lines was reported.; assay type: functional; conditions: Homo sapiens, read-out: Log TGI (converted)
Homo sapiens = species: Homo sapiens; experiment: In vitro total growth inhibition against non-small-cell lung cancer EKVX cell lines was reported.; assay type: functional; conditions: read-out: Log TGI (converted)
NCI-H322M [33] = experiment: In vitro growth inhibition against non-small-cell lung cancer […] cell line was reported.; assay type: functional; conditions: Homo sapiens
SK-MEL-5 = experiment: In vitro total growth inhibition against melanoma SK-MEL-5 cell lines was reported.; assay type: functional; conditions: Homo sapiens, read-out: Log TGI (converted)
SK-MEL-28 [34] = experiment: In vitro growth inhibition against melanoma SK-MEL-28 cell line was reported.; assay type: functional; conditions: Homo sapiens
OVCAR-5 = experiment: In vitro growth inhibition against ovarian cancer OVCAR-5 cell line was reported.; assay type: functional; conditions: Homo sapiens
OVCAR-4 [35] = experiment: Log of molar concentration leading to 50% cell death against ovarian cancer OVCAR-4 cell line was reported; assay type: functional; conditions: Homo sapiens, read-out: Log LC50 (the source's name) (converted)
OVCAR-4 [36] = experiment: In vitro growth inhibition against ovarian cancer OVCAR-4 cell line was reported.; assay type: functional; conditions: Homo sapiens

In the case of `O=C(Nc1cccc2nsnc12)c1cc2c(cc1Cl)Sc1nccn1S2(=O)=O`, the CC50 (MCF7 [1]) is reported as 6.61 µM, the GI50 (DU-145 [2]) is reported as 1.74 µM and the CC50 (PC-3) is reported as 6.46 µM. It also gave a CC50 (U-251) of 44.7 µM, a TGI (OVCAR-8 [3]) of 7.08 µM and a GI50 (T47D) of 1.7 µM. It also gave a TGI (HOP-62) of 3.8 µM, a CC50 (RPMI-8226 [4]) of 7.94 µM and a TGI (NCI-H322M [5]) of 3.24 µM. For the same compound, the TGI (NCI/ADR-RES) was 38.9 µM, the CC50 (DU-145 [6]) was 6.03 µM and the GI50 (SF-295 [7]) was 11.2 µM. The GI50 (BT-549) was 12.3 µM, the GI50 (HL-60 [8]) was 1.86 µM and the GI50 (786-0) was 16.6 µM. It also gave a TGI (CCRF-CEM) of 13.5 µM, a CC50 (UACC-62 [9]) of 41.7 µM and a CC50 (M14 [10]) of 69.2 µM. It also gave a GI50 (A549) of 12.6 µM, a TGI (HL-60 [11]) of 3.72 µM and a CC50 (SK-MEL-2 [12]) of 64.6 µM. It also gave a TGI (HCC 2998 [13]) of 11.7 µM, a TGI (MDA-MB-435) of 49 µM and a TGI (MCF7 [14]) of 3.39 µM. The GI50 (HCC 2998 [15]) was 3.39 µM, the TGI (UACC-62 [16]) was 17.8 µM and the TGI (HCT-116 [17]) was 5.37 µM. For the same compound, the TGI (SR) was 4.79 µM, the TGI (SK-MEL-2 [18]) was 25.7 µM and the TGI (TK-10) was 22.9 µM. For the same compound, the GI50 (MDA-MB-231 [19]) was 6.03 µM, the CC50 (MDA-MB-231 [20]) was 53.7 µM and the TGI (IGROV-1) was 23.4 µM. For the same compound, the GI50 (M14 [21]) was 17.4 µM, the TGI (NCI-H46) was 4.27 µM and the GI50 (NCI-H226 [22]) was 19.1 µM. The TGI (ACHN) was 36.3 µM, the GI50 (MDA-N) was 13.5 µM and the TGI (NCI-H23) was 25.1 µM. For the same compound, the CC50 (RXF 393) was 56.2 µM, the GI50 (OVCAR-8 [23]) was 2.34 µM and the CC50 (SF-295 [24]) was 55 µM. For the same compound, the CC50 (SK-MEL-28 [25]) was 46.8 µM, the CC50 (UACC-257 [26]) was 6.31 µM and the GI50 (MCF7 [27]) was 1.74 µM. The TGI (RPMI-8226 [28]) was 4.07 µM, the CC50 (HCT-116 [29]) was 12.9 µM and the TGI (HT-29) was 5.25 µM. The TGI (NCI-H226 [30]) was 33.1 µM, the GI50 (MOLT-4) was 2.75 µM and the CC50 (KM12) was 7.41 µM. The GI50 (UACC-257 [31]) was 1.82 µM, the TGI (SF-295 [32]) was 25.1 µM and the TGI (Homo sapiens) was 4.68 µM. For the same compound, the GI50 (NCI-H322M [33]) was 1.78 µM, the TGI (SK-MEL-5) was 33.9 µM and the GI50 (SK-MEL-28 [34]) was 2.45 µM. It also gave a GI50 (OVCAR-5) of 29.5 µM, a CC50 (OVCAR-4 [35]) of 87.1 µM and a GI50 (OVCAR-4 [36]) of 2.75 µM.
